Data on 15 compounds can be found in PubChem BioAssay AID488798 (The Scripps Research Institute Molecular Screening Center, 2010).

The source made the active and inactive calls. How the calls were made is not given here.

In the experiment the target is Protein Rev (Human immunodeficiency virus type 1 group M subtype B (isolate HXB2)) (UniProt P04618). Description: inhibitors of HIV-1 Rev binding to RRE RNA, late-stage follow-up, counter-screen for gld-1 inhibitor project, biochemical, FRET, dose response (AID 488798). (A counterscreen serves to expose hits that act by an unwanted route or on another target.)
Protein Rev (Human immunodeficiency virus type 1 group M subtype B (isolate HXB2)), sequence (P04618 whole entry, looked up): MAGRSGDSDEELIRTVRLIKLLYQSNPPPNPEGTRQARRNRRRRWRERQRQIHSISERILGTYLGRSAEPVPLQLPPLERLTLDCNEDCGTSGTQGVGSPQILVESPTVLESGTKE
The term IC50 denotes the concentration at which inhibition is half-maximal. For `Cc1ccc(S(=O)(=O)Nc2cc3c(C(=O)Nc4ccccc4)c(C)oc3c3ccccc23)cc1`, the IC50 result is “inactive”.

For the compound `COc1ccc(/C=C(\CC(=O)O)c2nc3ccccc3s2)cc1O`, the IC50 was > 75.4 µM (inactive).

In the case of `O=c1[nH]c(=O)c2nc3ccccc3nc2[nH]1`, the IC50 was > 75.4 µM (inactive).

Take `O=c1[nH]c2cc3ccccc3cc2nc1C(F)(F)F`: the IC50 entry is “inactive”.

As to `CC1=CC(=O)c2c(O)ccc(O)c2C1=O`, the IC50 was > 75.4 µM (inactive).

Consider `Cc1ccc(S(=O)(=O)Nc2cc3c(C(=O)Nc4ccccc4)c(C)oc3c3ccccc23)c(C)c1`, for which the IC50 is > 75.4 µM (inactive).

`O=C(CN1C(=O)NC2(CCCCC2)C1=O)Oc1ccc2c(C(F)(F)F)cc(=O)oc2c1`: the IC50 was > 75.4 µM (inactive).

Consider `O=C1C2=C(SCCS2)C(=O)N1CCCO`, for which the IC50 was > 75.4 µM (inactive).

As for `CCOC(=O)c1c(C)oc2c1cc(NS(=O)(=O)c1ccc(C)cc1)c1ccccc12`, the IC50 is > 75.4 µM (inactive).

Regarding `CCCCn1c(=O)[nH]c2nc3cc(NC(C)=O)ccc3nc2c1=O`, the IC50 result was “inactive”.

Consider `Nc1ccc2nonc2c1[N+](=O)[O-]`, for which the IC50 was > 75.4 µM (inactive).

Turning to `Nc1ccc(O)c2c1C(=O)c1ccccc1C2=O`, the IC50 was > 75.4 µM (inactive).

On to `CCN(CC)S(=O)(=O)c1ccc(N2CCCC2)c(NS(=O)(=O)c2ccc(F)cc2)c1`, for which the IC50 is > 75.4 µM (inactive).

`Nc1c(O)ccc2c1C(=O)c1ccccc1C2=O`: the IC50 is > 75.4 µM (inactive).

Take `COc1ccc(C=Nc2c(-c3ccco3)nc3ccccn23)cc1OC`: the IC50 is > 75.4 µM (inactive).
